ChEMBL document CHEMBL4304790, “Successful Strategies for Mitigation of a Preclinical Signal for Phototoxicity in a DGAT1 Inhibitor” (ACS Med Chem Lett, 2019)
Converted amounts (≈) assume the structure as drawn. Where a name gives a salt, the structure may show the parent alone. The source made the active and inactive calls. The calls are words filed in the database; no cut-off is given here.

How the values were obtained:
[1] = biological target: T1, Diacylglycerol O-acyltransferase 1 (Mus musculus, UniProt Q9Z2A7); test: (§1) Inhibition of DGAT1 in mouse C2C12 cells assessed as reduction in intracellular triglyceride production incubated for 2 hrs in presence of BSA-complexed oleate by LC/MS/MS analysis; assay type: cell-based
T1 sequence (Q9Z2A7 whole entry): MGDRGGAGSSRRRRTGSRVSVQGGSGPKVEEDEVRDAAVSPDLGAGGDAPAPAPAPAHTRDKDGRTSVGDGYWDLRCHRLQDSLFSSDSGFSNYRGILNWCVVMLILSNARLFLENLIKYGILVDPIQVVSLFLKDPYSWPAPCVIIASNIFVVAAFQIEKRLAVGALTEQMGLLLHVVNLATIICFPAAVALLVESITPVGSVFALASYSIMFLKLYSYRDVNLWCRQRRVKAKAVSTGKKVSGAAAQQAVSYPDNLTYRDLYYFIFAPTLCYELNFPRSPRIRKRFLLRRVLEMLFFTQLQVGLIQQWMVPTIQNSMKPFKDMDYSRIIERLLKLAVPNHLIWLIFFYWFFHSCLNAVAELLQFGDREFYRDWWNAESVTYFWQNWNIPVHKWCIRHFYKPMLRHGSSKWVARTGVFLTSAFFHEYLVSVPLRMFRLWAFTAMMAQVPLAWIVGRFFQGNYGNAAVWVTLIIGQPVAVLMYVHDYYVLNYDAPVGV

[2] = Photo irritation factor, ratio of IC50 for cytotoxicity against BALB/c mouse 3T3 cells pretreated for 1 hr prior to 50 mins incubation in dark conditions followed by further incubation in DMEM medium for 20 to 22 hrs to IC50 for cytotoxicity against BALB/c mouse 3T3 cells pretreated for 1 hr prior to irradiation with UVA for 50 mins followed by further in DMEM medium incubation for 20 to 22 hrs …; assay type: cell-based; settings: BALB/c 3T3 cells
[3] = Toxicity in preclinical models assessed as GI tolerability
[4] = Drug uptake in plasma of Sprague-Dawley rat lipid bolus model at 5 mg/kg, po administered via gavage 4 hrs prior to lipid challenge and measured upto 8 hrs post compound dose by LC-MS/MS analysis; assay type: ADME, organism-based; settings: in vivo
[5] = Half life in Sprague-Dawley rat at 0.5 mg/kg, iv measured upto 24 hrs; assay type: ADME, organism-based; settings: in vivo
[6] = Volume of distribution in Sprague-Dawley rat at 0.5 mg/kg, iv measured upto 24 hrs; assay type: ADME, organism-based; settings: in vivo
[7] = Clearance in Sprague-Dawley rat at 0.5 mg/kg, iv measured upto 24 hrs; assay type: ADME, organism-based; settings: in vivo
[8] = Protein binding in rat plasma; assay type: ADME, cell-free; settings: read-out: PPB (converted)
[9] = Permeability across apical to basolateral side in human Caco2 cells; assay type: ADME, cell-based; settings: Caco-2, read-out: permeability
[10] = Tmax in Sprague-Dawley rat at 1.5 mg/kg, po measured upto 24 hrs; assay type: ADME, organism-based; settings: in vivo
[11] = Oral bioavailability in Sprague-Dawley rat at 1.5 mg/kg measured upto 24 hrs; assay type: ADME, organism-based; settings: in vivo
[12] = Permeability across basolateral to apical side in human Caco2 cells; assay type: ADME, cell-based; settings: Caco-2, read-out: permeability
[13] = Solubility of compound at pH 6.8; assay type: physicochemical; settings: buffer
[14] = AUC (0 to 24 hrs) in Sprague-Dawley rat at 0.5 mg/kg, iv measured upto 24 hrs; assay type: ADME, organism-based; parameters: time < 24 hr, dose 0.5 mg/kg, route intravenous; settings: in vivo
[15] = AUC (0 to 24 hrs) in Sprague-Dawley rat at 1.5 mg/kg, po measured upto 24 hrs; assay type: ADME, organism-based; parameters: time < 24 hr, dose 1.5 mg/kg, route oral; settings: in vivo
Rattus norvegicus [16] = species on record: Rattus norvegicus; settings: Sprague-Dawley, 5 mg/kg
[17] = Cmax in Sprague-Dawley rat at 1.5 mg/kg, po measured upto 24 hrs; assay type: ADME, organism-based; parameters: dose 1.5 mg/kg, route oral; settings: in vivo
[18] = Lipophilicity, log D of the compound at pH 7.4; assay type: physicochemical; settings: buffer
[19] = Dissociation constant, pKa of compound; assay type: physicochemical
[20] = biological target: T2, Diacylglycerol O-acyltransferase 1 (Mus musculus) (UniProt Q9Z2A7); test: as §1; assay type: cell-based
T2 sequence (whole entry): T1 sequence (Q9Z2A7 whole entry)

[21] = biological target: T3, Diacylglycerol O-acyltransferase 1 (Homo sapiens) (UniProt O75907); test: (§2) Inhibition of recombinant human his-tagged DGAT1 expressed in Sf9 insect cells using oleoyl-CoA and diolein as substrates incubated for 30 mins by LC/MS/MS analysis
T3 sequence (whole entry): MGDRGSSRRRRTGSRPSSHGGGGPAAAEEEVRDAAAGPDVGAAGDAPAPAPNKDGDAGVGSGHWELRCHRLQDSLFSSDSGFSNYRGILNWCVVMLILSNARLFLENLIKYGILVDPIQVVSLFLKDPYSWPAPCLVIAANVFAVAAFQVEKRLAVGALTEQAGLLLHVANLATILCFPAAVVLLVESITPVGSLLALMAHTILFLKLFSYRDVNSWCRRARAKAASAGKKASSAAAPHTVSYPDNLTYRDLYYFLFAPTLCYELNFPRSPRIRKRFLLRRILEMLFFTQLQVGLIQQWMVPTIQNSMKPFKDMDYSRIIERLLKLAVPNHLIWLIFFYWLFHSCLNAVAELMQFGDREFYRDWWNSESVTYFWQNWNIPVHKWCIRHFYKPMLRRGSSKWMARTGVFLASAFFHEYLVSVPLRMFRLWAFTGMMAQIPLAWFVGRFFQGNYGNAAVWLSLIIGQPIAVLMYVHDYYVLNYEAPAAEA

[22] = Half life in Sprague-Dawley rat at 1 mg/kg, iv measured upto 24 hrs; assay type: ADME, organism-based; settings: in vivo
[23] = Oral bioavailability in Sprague-Dawley rat at 5 mg/kg measured upto 24 hrs; assay type: ADME, organism-based; settings: in vivo
[24] = AUC (0 to 24 hrs) in Sprague-Dawley rat at 5 mg/kg, po measured upto 24 hrs; assay type: ADME, organism-based; parameters: dose 5 mg/kg, time < 24 hr, route oral; settings: in vivo
[25] = Tmax in Sprague-Dawley rat at 5 mg/kg, po measured upto 24 hrs; assay type: ADME, organism-based; settings: in vivo
[26] = Volume of distribution in Sprague-Dawley rat at 1 mg/kg, iv measured upto 24 hrs; assay type: ADME, organism-based; settings: in vivo
[27] = Cmax in Sprague-Dawley rat at 5 mg/kg, po measured upto 24 hrs; assay type: ADME, organism-based; parameters: dose 5 mg/kg, route oral; settings: in vivo
[28] = Clearance in Sprague-Dawley rat at 1 mg/kg, iv measured upto 24 hrs; assay type: ADME, organism-based; settings: in vivo
[29] = Efflux ratio of permeability across basolateral to apical side over apical to basolateral side in human Caco2 cells; assay type: ADME, cell-based; settings: Caco-2
[30] = biological target: T4, Diacylglycerol O-acyltransferase 1 (Homo sapiens, UniProt O75907); test: as §2
T4 sequence (O75907 whole entry): T3 sequence (whole entry)

Rattus norvegicus [31] = test: Antihyperlipidemic activity in Sprague-Dawley rat lipid bolus model assessed as reduction in plasma triglyceride excursion at 5 mg/kg, po administered via gavage 4 hrs prior to lipid challenge and measured upto 8 hrs post compound dose by GPO-Trinder method relative to control; assay type: functional
[32] = AUC (0 to 24 hrs) in Sprague-Dawley rat at 1 mg/kg, iv measured upto 24 hrs; assay type: ADME, organism-based; parameters: dose 1 mg/kg, time < 24 hr, route intravenous; settings: in vivo
[33] = Half life in po dosed human plasma administered as single dose; assay type: ADME, organism-based

SMILES: Cc1nnc(Nc2ccc(-c3ccc([C@H]4CC[C@H](CC(=O)O)CC4)cc3)nc2)o1
- EC50 [1]: 0.206 µM

SMILES: CCc1nc(C)c(C(=O)Nc2ccc(-c3ccc([C@H]4CC[C@H](CC(=O)O)CC4)cc3)nc2)o1
- selectivity ratio [2]: 1
- EC50 [1]: 0.008 µM

SMILES: CCc1nc(C)c(C(=O)Nc2ccc(-c3ccc(C45CCC(CC(=O)O)(CC4)OC5)cc3)cc2)o1
- Activity [3]: Non-Toxic
- Drug uptake [4]: Active
- half-life [5]: 20 h
- Vd [6]: 0.3 L/kg
- clearance [7]: 0.012 L/h/kg
- fraction unbound [8]: < 0.01
- Papp A→B [9]: 183 nm/s
- Tmax [10]: 3 h
- bioavailability [11]: > 100%
- Papp B→A [12]: 77 nm/s
- solubility [13]: 13 µM (≈ 6.17 µg/mL)
- AUC(0-t) at 24 h [14]: 51.4 µM·h
- AUC(0-t) at 24 h [15]: 180 µM·h
- inhibition (Rattus norvegicus [16]): Active
- Cmax [17]: 28 µM

SMILES: O=C(O)CC12CCC(c3ccc(-c4ccc(Nc5nnc(C6CCC6)o5)cn4)cc3)(CC1)CO2
- logD [18]: 1.5
- pKa [19]: 3.9

SMILES: O=C(O)CC12CCC(c3ccc(-c4ccc(Nc5nnc(C6CCC6)o5)cc4)cc3)(CC1)CO2
- Activity [3]: Non-Toxic
- Drug uptake [4]: Active
- half-life [5]: 3.2 h
- Vd [6]: 0.7 L/kg
- clearance [7]: 0.21 L/h/kg
- fraction unbound [8]: < 0.01
- Papp A→B [9]: 59 nm/s
- Tmax [10]: 1 h
- bioavailability [11]: > 100%
- Papp B→A [12]: 118 nm/s
- solubility [13]: < 5 µM
- AUC(0-t) at 24 h [14]: 5.16 µM·h
- AUC(0-t) at 24 h [15]: 25.8 µM·h
- logD [18]: 2.4
- inhibition (Rattus norvegicus [16]): Active
- Cmax [17]: 6.1 µM

SMILES: O=C(O)C[C@H]1CC[C@H](c2ccc(-c3ccc(Nc4nnc(C5CCC5)o4)cn3)cc2)CC1
- EC50 [1]: 0.012 µM
- logD [18]: 2.8

SMILES: CCc1nnc(Nc2ccc(-c3ccc([C@H]4CC[C@H](CC(=O)O)CC4)cc3)nc2)o1
- EC50 [1]: 0.027 µM

SMILES: CC(C)c1nnc(Nc2ccc(-c3ccc(N4CCC(CC(=O)O)CC4)cc3)nc2)o1
- EC50 [1]: 2.3 µM
- logD [18]: 0.7
- pKa [19]: 3.8

SMILES: O=C(O)C[C@H]1CC[C@H](c2ccc(-c3ccc(Nc4nnc(C5CCC5)s4)cn3)cc2)CC1
- EC50 [1]: 0.008 µM

SMILES: CC(C)(C)c1nnc(Nc2ccc(-c3ccc([C@H]4CC[C@H](CC(=O)O)CC4)cc3)nc2)o1
- inhibition [20]: Active
- inhibition [21]: Active

SMILES: CN(C)CCCN1c2ccccc2Sc2ccc(Cl)cc21 [CHLORPROMAZINE HYDROCHLORIDE]
- selectivity ratio [2]: > 6

SMILES: COc1ccc2nc(Nc3ccc(-c4ccc([C@H]5CC[C@H](CC(=O)O)CC5)cc4)nc3)oc2c1
- selectivity ratio [2]: 17

SMILES: O=C(O)C[C@H]1CC[C@H](c2ccc(-c3ccc(Nc4ccc(C(F)(F)F)nc4)cn3)cc2)CC1
- Activity [3]: Non-Toxic
- half-life [22]: 5.1 h
- bioavailability [23]: 83%
- AUC(0-t) at 24 h [24]: 190 µM·h
- Tmax [25]: 0.7 h
- fraction unbound [8]: 0.003
- Papp A→B [9]: 81 nm/s
- Vd [26]: 0.1 L/kg
- Cmax [27]: 42 µM
- Papp B→A [12]: 23 nm/s
- selectivity ratio [2]: 56
- clearance [28]: 0.06 L/h/kg
- EC50 [1]: 0.071 µM
- solubility [13]: < 5 µM
- efflux ratio [29]: 0.28
- IC50 [30]: 0.055 µM
- inhibition in vivo at 5 mg/kg (Rattus norvegicus [31]): 50 to 70%
- AUC(0-t) at 24 h [32]: 46 µM·h
- half-life [33]: 125 h
- logD [18]: 3.6
- pKa [19]: 4.1
